Source: patent US20050215620A1, “Method of treating amyloid beta precursor disorders” (Andrx Labs, LLC, priority 1999, published 2005)

How the values were obtained:
Aβ peptides = test: Extracellular and intracellular [35S]-labeled Aβ peptides in APP-expressing H4, MDCK and CHO cells (pulse-chase, immunoprecipitation, autoradiography); format: cell-based, human; canine; Chinese hamster (cells expressing human APP)
Method: (§1) The three cell lines utilized were: Chinese Hamster Ovary (CHO) cells expressing the 751 amino acid form of APP; Mabin-Darby Canine Kidney (MDCK) cells which overexpress the 695 amino acid form of APP; Human neuroglioma (H4) cells overexpressing the 695 form of human APP. All cells were prepared by the stable introduction of a cDNA coding for human APP. All cell lines were maintained in DMEM containing 10% FBS and antibiotics.
In order to characterize the effects of cholesterol depletion, cell cultures of each cell line were cultured on six-well plates for 4 days in DMEM containing 10% FCLPDS, which lipid depleted medium reduced the external source of cholesterol, in the presence of lovastatin acid (LA) or absence of LA.
For measurement of APP processing and Aβ peptide formation, medium was removed and the cells were washed once with PBS and then incubated for 2 hours in DMEM containing 1 mCi/ml [^35S] Methionine. After this “pulse” period, the cells were either (1) lysed to measure the total labeled APPi and APPm at time zero, or (2) the cells were incubated for 2 hours in fresh, unlabeled complete medium (“chase”) and then lysed. Then the cell supernatants and lysates were treated with the appropriate antibody to calculate the amounts of APPi, APPm, APPs, and Aβ peptides.
To measure Aβ peptides, or to measure APPs, which is the secreted carboxyl-terminal truncated form, cell supernatants were incubated with antibody 6E10, which recognizes the first 15 amino acids of the Aβ peptide that correspond to the COOH-terminal amino acids of APPs . See Buxbaum, J. D., et al. (1994) Proc Natl Acad Sci USA. 91:4489-93, which is incorporated herein by reference.
The incubations with antibody 6E10 or antibody 369 were performed at 4° C. for 75 minutes followed by a 45 minute incubation at 4° C. with either agarose-linked anti-mouse IgG for antibody 6E10 or protein A sepharose for antibody 369. The beads were then washed three times for 10 minutes and then run on either a 10-20% Tris-Tricine Gel for APPs and Aβ peptides or an 8% polyacrylamide gel for cell-associated APR The gels were dried and exposed to a Phosphor Imager® screen (STORM 860, Molecular Dynamics) and exposed for a minimum of two days. The protein bands were visualized on a STORM 860 Phosphor Imager® (Molecular Dynamics) and quantitated using ImageQuant® (Molecular Dynamics). […]
To determine whether a decrease in cholesterol is associated with a change in the amount of extracellular Aβ peptides, the H4, MDCK, and CHO cells, expressing human APPm were incubated for 4 days in the presence or absence of 0.5 μM LA. […] Relative levels of extracellular Aβ peptides were determined under each condition by quantitative Phosphorlmager autoradiography. […]

APP processing [1] = test: Extracellular APPs, extracellular Aβ peptides and total APPm in CHO cells; format: cell-based, Chinese hamster (cells expressing human APP)
Method: The three cell lines utilized were: Chinese Hamster Ovary (CHO) cells expressing the 751 amino acid form of APP; Mabin-Darby Canine Kidney (MDCK) cells which overexpress the 695 amino acid form of APP; Human neuroglioma (H4) cells overexpressing the 695 form of human APP. All cells were prepared by the stable introduction of a cDNA coding for human APP. All cell lines were maintained in DMEM containing 10% FBS and antibiotics. […] After this “pulse” period, the cells were either (1) lysed to measure the total labeled APPi and APPm at time zero, or (2) the cells were incubated for 2 hours in fresh, unlabeled complete medium (“chase”) and then lysed. Then the cell supernatants and lysates were treated with the appropriate antibody to calculate the amounts of […], and Aβ peptides. To measure cell-associated, full-length APPi and APPm, or to measure carboxyl-terminal fragments of APP, cell lysates were incubated with antibody 369 which recognizes the carboxyl-terminus of APP. See Buxbaum, J. D., et al. (1990) Proc Natl Acad Sci USA 87:6003-6, which is incorporated herein by reference. […] See Buxbaum, J. D., et al. (1994) Proc Natl Acad Sci USA. 91:4489-93, which is incorporated herein by reference. The incubations with antibody 6E10 or antibody 369 were performed at 4° C. for 75 minutes followed by a 45 minute incubation at 4° C. with either agarose-linked anti-mouse IgG for antibody 6E10 or protein A sepharose for antibody 369. […] The protein bands were visualized on a STORM 860 Phosphor Imager® (Molecular Dynamics) and quantitated using ImageQuant® (Molecular Dynamics). […] Specifically, it was determined that treatment of CHO cells with 0.5 μM LA reduced the amount of extracellular APPs by about 30% of the amount calculated for the control and reduced the amount of extracellular Aβ peptides by about 70% of the amount calculated for the control when no LA was present. The amount of extracellular Aβ peptides and the amount of extracellular APPs were normalized to the amount of total APP found in the cell at the end of cell labeling as described above. […]

APP processing [2] = test: APP processing (APPs formation, APPm levels) in H4 cells; format: cell-based, human; conditions: 0.5 μM LA
Method: as §1
For measurement of APP processing and Aβ peptide formation, medium was removed and the cells were washed once with PBS and then incubated for 2 hours in DMEM containing 1 mCi/ml [^35S] Methionine. […]
The incubations with antibody 6E10 or antibody 369 were performed at 4° C. for 75 minutes followed by a 45 minute incubation at 4° C. with either agarose-linked anti-mouse IgG for antibody 6E10 or protein A sepharose for antibody 369. […] The protein bands were visualized on a STORM 860 Phosphor Imager® (Molecular Dynamics) and quantitated using ImageQuant® (Molecular Dynamics).
To determine whether cholesterol depletion affects other aspects of APP processing, H4 cells were incubated for four days in the presence or absence of 0.5 μM LA, and subjected to metabolic labeling. The levels of [^35S]-labeled APPi and APPm were determined by irnmunoprecipitation from cell lysates with an antibody against the COOH-terminal of APP, followed by quantitative autoradiography. […]

[3] = CHO cells, 0.5 μM LA, normalized to total APP

CC[C@H](C)C(=O)O[C@H]1C[C@@H](C)C=C2C=C[C@H](C)[C@H](CC[C@@H](O)C[C@@H](O)CC(=O)O)[C@H]21 [LA, lovastatin acid]
decrease in amounts of extracellular Aβ peptides as compared to the untreated cells (Aβ peptides; 0.5 μM LA, 4 days, lipid depleted medium, H4, MDCK and CHO cells): 40-60% | LA concentration sufficient to significantly (p<0.001) decrease the amount of extracellular Aβ peptides (Aβ peptides; each cell type, various concentrations of LA): ≥ 0.05 µM | levels of intracellular Aβ peptides in cell lysates (Aβ peptides; presence of 0.5 μM LA): No detectable levels | reduction of extracellular Aβ peptide levels (weaker effect) (Aβ peptides; printed as 0.5 μM LA): < 20% | level of total APPm (APP processing [1]; CHO cells treated with 0.5 μM LA (control 3.2×10^6)): 3.4×10^6 arbitrary units | reduction of the amount of extracellular APPs relative to control (APP processing [1]; [3]): about 30% | reduction of the amount of extracellular Aβ peptides relative to control (APP processing [1]; [3]): about 70% | effects on maturation, levels of [35S]-labeled APPm (FIG. 6) (APP processing [2]): not sufficient to account for the decrease in Aβ peptide levels | [35S]-labeled APPs formation as compared to control cells (FIG. 5) (APP processing [2]; H4 cells, four days): modest decrease
